Series [1] is described as follows: Octanol-water partition coefficient, log Kow of the compound.
The next series concerns the target Albumin (Homo sapiens, UniProt P02768). Briefly: Binding affinity to human serum albumin. Conditions: isolated protein.

Each structure is given as a SMILES string.

The record followed here is ChEMBL document CHEMBL1148690, “Binding of ring-substituted indole-3-acetic acids to human serum albumin” (Bioorg Med Chem, 2007).

What is called logP is the decadic logarithm of the partition coefficient of the neutral form, usually between octanol and water.

Sequence of Albumin (P02768 whole entry): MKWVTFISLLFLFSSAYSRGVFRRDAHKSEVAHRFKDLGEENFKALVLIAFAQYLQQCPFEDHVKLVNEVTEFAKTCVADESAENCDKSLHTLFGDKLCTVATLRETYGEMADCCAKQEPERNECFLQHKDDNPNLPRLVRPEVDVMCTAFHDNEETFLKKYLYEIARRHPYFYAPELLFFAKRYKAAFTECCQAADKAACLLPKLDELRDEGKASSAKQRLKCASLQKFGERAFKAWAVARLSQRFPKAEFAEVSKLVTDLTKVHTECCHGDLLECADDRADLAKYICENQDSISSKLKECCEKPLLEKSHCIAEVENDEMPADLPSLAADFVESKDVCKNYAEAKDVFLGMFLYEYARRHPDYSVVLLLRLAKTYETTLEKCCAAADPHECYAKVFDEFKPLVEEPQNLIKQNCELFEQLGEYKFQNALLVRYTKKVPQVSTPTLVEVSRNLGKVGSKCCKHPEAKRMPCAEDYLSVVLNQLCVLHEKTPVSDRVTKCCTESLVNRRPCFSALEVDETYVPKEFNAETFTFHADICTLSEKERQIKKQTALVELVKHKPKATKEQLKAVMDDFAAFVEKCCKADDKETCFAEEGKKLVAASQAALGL

In series [1], `CCc1[nH]c2ccccc2c1CC(=O)O` came in with a logP of 2.09. This compound gave a logKA on Albumin of 0.031.
In series [1], `Cc1cccc2[nH]cc(CC(=O)O)c12` yielded a logP of 1.84. On Albumin, this compound gave a logKA of 0.155.
The compound `O=C(O)Cc1c[nH]c2c(Cl)cc(Cl)cc12` gave a lipophilicity (logP) in series [1] of 3.42. Also, the logKA at Albumin is 0.983.
The corresponding values for `CCOC(=O)Cc1c[nH]c2ccccc12` are 2.34 and 0.292.
With `CCCc1ccc2[nH]cc(CC(=O)O)c2c1`, in series [1], the logP amounted to 3.21. Further, the logKA on Albumin is 0.809.
In series [1], `Cc1ccc2c(CC(=O)O)c[nH]c2c1` had a logP of 1.96. The compound also came in with a logKA at Albumin of 0.689.
Regarding `Cc1cccc2c(CC(=O)O)c[nH]c12`, the lipophilicity (logP) in series [1] turned out to be 1.95. The compound also had a logKA at Albumin of 0.288.
`O=C(O)Cc1c[nH]c2ccc(Cl)c(Cl)c12` yielded a logP in series [1] of 2.92. The logKA at Albumin is reported as 0.799.
In series [1], `O=C(O)Cc1c[nH]c2c(Cl)ccc(Cl)c12` came in with a lipophilicity (logP) of 3.02. Further, the logKA on Albumin amounted to 0.84.
The corresponding values for `O=C(O)Cc1c[nH]c2cccc(Cl)c12` are 2.13 and 0.458.
The corresponding values for `O=C(O)Cc1c[nH]c2ccc(Cl)cc12` are 2.38 and 0.646.
Regarding `O=C(O)Cc1c[nH]c2c(Cl)cccc12`, in series [1], the logP was found to be 2.32. This compound gave a logKA on Albumin of 0.623.
The corresponding values for `Cc1[nH]c2ccccc2c1CC(=O)O` are 1.72 and -0.04.
On to `O=C(O)Cc1c[nH]c2ccc(OCc3ccccc3)cc12`, for which the logP in series [1] was determined as 3.2.
With `CCc1ccc2c(CC(=O)O)c[nH]c2c1`, the logP in series [1] amounted to 2.56. The logKA on Albumin is given as 1.044.
For `O=C(O)Cc1c[nH]c2c(F)cccc12`, the log partition coefficient (logP) in series [1] was 1.81. Also, on Albumin, the logKA is reported as 0.247.
The corresponding values for `O=C(O)Cc1c[nH]c2cc(Cl)c(Cl)cc12` are 3.2 and 1.436.
The corresponding values for `O=C(O)Cc1c[nH]c2ncccc12` are 0.45 and -0.314.
The corresponding values for `O=C(O)Cc1c[nH]c2ccc(O)cc12` are 0.74 and -0.125.
For `CCCc1[nH]c2ccccc2c1CC(=O)O`, in series [1], the logP was 2.56. At Albumin, this compound returned a logKA of 0.15.
As for `CCc1cccc2[nH]cc(CC(=O)O)c12`, the lipophilicity (logP) in series [1] turned out to be 2.33. Moreover, the logKA on Albumin amounted to 0.393.
The corresponding values for `CCc1ccc2[nH]cc(CC(=O)O)c2c1` are 2.54 and 0.49.
The corresponding values for `O=C(O)Cc1c[nH]c2c(Cl)c(Cl)ccc12` are 3.16 and 1.09.
The corresponding values for `CCCCc1ccc2[nH]cc(CC(=O)O)c2c1` are 3.89 and 1.05.
Compound `Cc1ccc2[nH]cc(CC(=O)O)c2c1` displayed a logP in series [1] of 1.99. Also, on Albumin, the logKA is on record as 0.217.
Regarding `O=C(O)Cc1c[nH]c2cc(F)ccc12`, the log partition coefficient (logP) in series [1] was found to be 1.74. The same compound displayed a logKA at Albumin of 0.308.
The corresponding values for `O=C(O)Cc1c[nH]c2cc(Cl)cc(Cl)c12` are 3.29 and 1.082.
The corresponding values for `O=C(O)Cc1c[nH]c2ccc(F)cc12` are 1.72 and 0.261.
The corresponding values for `Cn1cc(CC(=O)O)c2ccccc21` are 1.87 and 0.243.
In the case of `COc1ccc2[nH]cc(CC(=O)O)c2c1`, in series [1], the lipophilicity (logP) is 1.23. The compound further gave a logKA on Albumin of 0.185.
The corresponding values for `O=C(O)Cc1c[nH]c2cc(Cl)ccc12` are 2.41 and 0.863.
The corresponding values for `O=C(O)Cc1c[nH]c2cccc(F)c12` are 1.66 and 0.305.
The corresponding values for `COc1ccc2[nH]c(C)c(CC(=O)O)c2c1` [DESCHLOROBENZOYL INDOMETHACIN] are 2.14 and 0.228.
For the compound `O=C(O)Cc1c[nH]c2ccccc12` [INDOLE-3-ACETIC ACID], the logP in series [1] stood at 1.42. This compound also registered a logKA on Albumin of 0.102.
